Assay results taken from ChEMBL document CHEMBL1201862, “PubChem BioAssay data set” (2004).
pIC50: −log10 of the molar value. Active and inactive are the calls of the source.

Experiments:
Beta-arrestin-1 = Beta-arrestin-1 (Homo sapiens, UniProt P49407); assay: beta-arrestin/AP2 interaction blockers, potency – biochemical, cherry pick 1, beta2-adaptin appendage, flow cytometry, dose response (AID 588783); assay type: functional
[1] = HEK-293T viability loss after treatment – luminescence, T-cell screen hits, cytotoxicity control for TCR NF-kB inhibitor project, dose response (AID 489026); assay type: functional, cell-based;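 further: cells exposed to compound about 14 hours before the viability readout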
[2] = target: Sphingosine 1-phosphate receptor 1 (Homo sapiens, UniProt P21453); assay type: functional;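 further: Tango beta-arrestin reporter U2OS cells stimulated with S1P near its EC80; inhibitor potency meaning antagonism of receptor activation by the natural agonist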
[3] = target: Induced myeloid leukemia cell differentiation protein Mcl-1 (Homo sapiens, UniProt Q07820); assay type: functional
BJ [4] = assay: BJ-TERT fibroblast viability loss – cell-based, RAS-independent, luminescence, dose response (AID 1933); assay type: functional; settings: Homo sapiens
[5] = target: DNA dC->dU-editing enzyme APOBEC-3G (Homo sapiens, UniProt Q9HC16); assay: Dose Response confirmation of small molecule APOBEC3G DNA Deaminase Inhibitors via a fluorescence-based single-stranded DNA deaminase assay. [Related pubchem assays (depositor defined):AID493012, AID493028]; assay type: functional
H4 = assay: Luminescence Cell-Based Dose Response HTS to Identify Activators of 5'UTR Stem-Loop Driven Prion Protein mRNA Translation in H4 Neuroglioblastoma Cells. [Related pubchem assays: 1829 (Project Summary), 1814 (Primary HTS)]; assay type: functional; settings: Homo sapiens
[6] = target: T1, Sphingosine 1-phosphate receptor 4 (Homo sapiens, UniProt O95977); assay: Fluorescence dose response cell-based high throughput screening assay for antagonists of the Sphingosine 1-Phosphate Receptor 4 (S1P4). [Related pubchem assays: 1524 (Confirmation in triplicates.), 1510 (Primary screen.)]; assay type: functional
T1 sequence (O95977 whole entry): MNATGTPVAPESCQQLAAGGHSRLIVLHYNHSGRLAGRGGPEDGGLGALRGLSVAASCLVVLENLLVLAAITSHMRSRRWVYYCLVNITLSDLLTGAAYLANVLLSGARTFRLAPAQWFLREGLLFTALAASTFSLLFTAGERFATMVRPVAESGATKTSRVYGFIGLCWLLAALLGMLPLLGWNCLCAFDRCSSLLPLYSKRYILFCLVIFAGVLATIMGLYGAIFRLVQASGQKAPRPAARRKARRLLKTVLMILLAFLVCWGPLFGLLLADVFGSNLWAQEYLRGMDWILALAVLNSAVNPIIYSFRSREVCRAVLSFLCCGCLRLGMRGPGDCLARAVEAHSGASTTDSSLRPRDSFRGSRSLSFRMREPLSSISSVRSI

[7] = target: T2, Kappa-type opioid receptor (Homo sapiens, UniProt P41145); assay type: functional
T2 sequence (P41145 whole entry): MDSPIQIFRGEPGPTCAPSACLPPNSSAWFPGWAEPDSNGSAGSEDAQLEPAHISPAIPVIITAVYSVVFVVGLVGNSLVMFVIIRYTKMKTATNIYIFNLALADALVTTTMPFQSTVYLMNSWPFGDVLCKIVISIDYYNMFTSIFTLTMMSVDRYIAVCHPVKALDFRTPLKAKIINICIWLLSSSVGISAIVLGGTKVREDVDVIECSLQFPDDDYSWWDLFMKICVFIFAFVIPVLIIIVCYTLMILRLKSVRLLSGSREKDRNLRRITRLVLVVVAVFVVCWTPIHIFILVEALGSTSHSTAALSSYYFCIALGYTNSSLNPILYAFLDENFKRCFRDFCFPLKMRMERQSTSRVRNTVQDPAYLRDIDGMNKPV

Beta Lactamase = Beta Lactamase (Pseudomonas aeruginosa, UniProt Q932Y6); assay: BLA reporter interference, concentration series – BLA reporter cells, FRET fluorescence, artefact control for TLR9-MyD88 binding inhibitor project, dose response (AID 588341); assay type: cell-based;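 further: cell based assay in CHO-K1 cells stably expressing beta-lactamase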
[8] = DRD fibroblast viability loss – cell-based, non-viral oncogenic, luminescence, dose response (AID 1934); assay type: functional; settings: Homo sapiens
BJ [9] = assay: BJ-TERT-LT-ST fibroblast viability loss – cell-based, RAS-independent, luminescence, dose response (AID 1935); assay type: functional; settings: Homo sapiens;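 further: BJ fibroblasts immortalized with TERT plus LT and ST oncogenes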
[10] = Luminescence Cell-Based Dose Response HTS to Identify Activators of Luciferase Translation or Activity in H4 […] Cells. [Related pubchem assays: 1829 (Project Summary), 1814 (Primary HTS)]; assay type: functional
[11] = target: T3, Heat shock factor protein 1 (Mus musculus, UniProt P38532); assay: decrease of HSF1-responsive luciferase luminescence – cell-based, NIH3T3, dose retest, confirmation (AID 2382); assay type: functional;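 further: NIH3T3 fibroblasts with HSF1-driven luciferase reporter stressed by proteasome inhibitor MG132; luminescence from HSF1-driven luciferase expression after 8 hours of MG132 stress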
T3 sequence (P38532 whole entry): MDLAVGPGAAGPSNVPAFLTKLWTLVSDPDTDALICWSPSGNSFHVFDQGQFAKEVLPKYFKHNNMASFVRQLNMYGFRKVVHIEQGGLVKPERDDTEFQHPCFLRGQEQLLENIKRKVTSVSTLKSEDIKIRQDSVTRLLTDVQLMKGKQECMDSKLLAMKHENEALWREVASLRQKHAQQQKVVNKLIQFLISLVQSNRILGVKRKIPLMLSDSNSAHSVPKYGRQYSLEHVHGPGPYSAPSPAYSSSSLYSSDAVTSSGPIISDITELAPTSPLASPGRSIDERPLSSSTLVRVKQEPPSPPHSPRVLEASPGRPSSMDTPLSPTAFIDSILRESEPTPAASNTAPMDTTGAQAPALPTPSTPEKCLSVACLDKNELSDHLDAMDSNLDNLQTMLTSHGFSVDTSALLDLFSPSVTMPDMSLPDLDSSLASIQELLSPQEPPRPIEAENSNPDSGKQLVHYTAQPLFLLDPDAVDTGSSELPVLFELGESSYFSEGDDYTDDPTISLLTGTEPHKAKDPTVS

Genome polyprotein = Genome polyprotein (dengue virus type 2, UniProt P29990); assay: flavivirus cap methylation enzyme inhibition – biochemical, confirmation dose response, primary screen (AID 588689); assay type: functional
BJ [12] = assay: growth inhibition of engineered Ras-driven BJ cells – cell-based, alamar blue fluorescence, cherrypicked samples, dose response (AID 2631); assay type: functional; settings: Homo sapiens;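 further: confirmatory dose-response assay in RAS-dependent BJ fibroblasts engineered with TERT, LT and ST, with cytotoxicity read by fluorescence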
[13] = Luminescence Cell-Based Dose Confirmation HTS to Identify Inhibitors of Platelet Dense Granule Release. [Related pubchem assays: 1663 (Primary HTS), 1678 (Summary of Project)]; assay type: functional
Vero = assay: viability of Vero cells under compound – cytotoxicity control for flavivirus capping enzyme inhibitors (AID 588742); assay type: functional; settings: Chlorocebus sabaeus
BJ [14] = assay: cells; assay type: functional, cell-based; settings: Homo sapiens
[15] = target: T4, Voltage-gated N-type calcium channel alpha-1B subunit/Amyloid beta A4 precursor protein-binding family A member 1 (Homo sapiens, UniProt Q00975+Q02410); assay type: protein assay
T4 sequence (Q00975 whole entry): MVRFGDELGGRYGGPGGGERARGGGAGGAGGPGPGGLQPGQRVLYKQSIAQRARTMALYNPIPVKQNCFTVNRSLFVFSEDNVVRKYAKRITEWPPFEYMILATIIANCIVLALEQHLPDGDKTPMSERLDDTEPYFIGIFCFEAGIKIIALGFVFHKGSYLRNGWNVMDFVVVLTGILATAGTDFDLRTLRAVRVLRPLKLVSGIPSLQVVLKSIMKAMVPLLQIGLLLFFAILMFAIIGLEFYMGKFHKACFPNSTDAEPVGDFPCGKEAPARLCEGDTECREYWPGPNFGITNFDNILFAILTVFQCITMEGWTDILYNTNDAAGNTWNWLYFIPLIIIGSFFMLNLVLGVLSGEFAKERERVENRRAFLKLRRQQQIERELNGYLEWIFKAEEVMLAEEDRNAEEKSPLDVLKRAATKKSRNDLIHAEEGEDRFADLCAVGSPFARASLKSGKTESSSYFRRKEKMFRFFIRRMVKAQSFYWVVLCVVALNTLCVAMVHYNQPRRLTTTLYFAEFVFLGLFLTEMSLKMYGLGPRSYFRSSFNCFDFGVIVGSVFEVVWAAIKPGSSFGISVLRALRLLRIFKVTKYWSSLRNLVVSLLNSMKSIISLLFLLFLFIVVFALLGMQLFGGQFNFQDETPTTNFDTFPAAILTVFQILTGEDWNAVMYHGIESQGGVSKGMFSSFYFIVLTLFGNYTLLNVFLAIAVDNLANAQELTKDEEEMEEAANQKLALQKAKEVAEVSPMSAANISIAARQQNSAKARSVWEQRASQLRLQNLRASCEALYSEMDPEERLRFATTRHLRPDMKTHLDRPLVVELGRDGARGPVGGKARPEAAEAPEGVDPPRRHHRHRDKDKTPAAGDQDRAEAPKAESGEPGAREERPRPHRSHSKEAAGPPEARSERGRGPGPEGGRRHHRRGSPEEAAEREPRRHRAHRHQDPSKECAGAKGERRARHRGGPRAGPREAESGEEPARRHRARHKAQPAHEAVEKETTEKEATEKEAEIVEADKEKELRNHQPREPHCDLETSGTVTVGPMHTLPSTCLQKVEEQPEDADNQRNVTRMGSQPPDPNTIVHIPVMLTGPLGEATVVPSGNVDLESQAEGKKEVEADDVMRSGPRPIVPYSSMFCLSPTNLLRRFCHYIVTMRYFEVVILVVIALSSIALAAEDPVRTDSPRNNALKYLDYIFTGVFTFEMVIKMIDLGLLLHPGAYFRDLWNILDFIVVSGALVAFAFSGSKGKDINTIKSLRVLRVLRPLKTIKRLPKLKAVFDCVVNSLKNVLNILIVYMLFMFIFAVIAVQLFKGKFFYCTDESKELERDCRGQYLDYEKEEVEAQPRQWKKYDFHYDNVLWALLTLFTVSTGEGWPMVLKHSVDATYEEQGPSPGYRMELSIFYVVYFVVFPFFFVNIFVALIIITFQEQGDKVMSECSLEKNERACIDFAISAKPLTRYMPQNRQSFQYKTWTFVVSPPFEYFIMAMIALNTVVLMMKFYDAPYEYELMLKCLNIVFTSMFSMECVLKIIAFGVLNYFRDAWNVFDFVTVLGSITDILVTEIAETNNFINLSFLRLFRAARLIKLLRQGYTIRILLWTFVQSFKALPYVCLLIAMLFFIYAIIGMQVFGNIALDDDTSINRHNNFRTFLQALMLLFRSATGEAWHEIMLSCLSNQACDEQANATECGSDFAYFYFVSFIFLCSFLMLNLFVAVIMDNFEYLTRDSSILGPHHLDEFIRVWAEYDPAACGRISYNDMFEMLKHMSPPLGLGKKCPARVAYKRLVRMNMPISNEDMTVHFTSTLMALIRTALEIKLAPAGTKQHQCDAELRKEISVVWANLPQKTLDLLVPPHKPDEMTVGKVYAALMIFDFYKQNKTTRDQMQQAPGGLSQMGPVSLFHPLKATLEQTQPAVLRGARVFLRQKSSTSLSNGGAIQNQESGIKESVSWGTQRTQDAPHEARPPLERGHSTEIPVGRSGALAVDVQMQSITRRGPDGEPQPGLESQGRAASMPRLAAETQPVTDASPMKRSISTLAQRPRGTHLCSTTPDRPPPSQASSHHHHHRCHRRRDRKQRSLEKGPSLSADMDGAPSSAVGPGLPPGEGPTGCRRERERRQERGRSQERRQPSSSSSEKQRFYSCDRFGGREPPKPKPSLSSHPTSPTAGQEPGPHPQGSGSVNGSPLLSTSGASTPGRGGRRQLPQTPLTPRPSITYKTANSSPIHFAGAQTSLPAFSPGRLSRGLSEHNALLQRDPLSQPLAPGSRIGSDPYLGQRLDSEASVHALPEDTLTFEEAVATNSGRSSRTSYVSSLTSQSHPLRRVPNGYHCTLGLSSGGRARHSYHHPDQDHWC
T4 sequence (Q02410 whole entry): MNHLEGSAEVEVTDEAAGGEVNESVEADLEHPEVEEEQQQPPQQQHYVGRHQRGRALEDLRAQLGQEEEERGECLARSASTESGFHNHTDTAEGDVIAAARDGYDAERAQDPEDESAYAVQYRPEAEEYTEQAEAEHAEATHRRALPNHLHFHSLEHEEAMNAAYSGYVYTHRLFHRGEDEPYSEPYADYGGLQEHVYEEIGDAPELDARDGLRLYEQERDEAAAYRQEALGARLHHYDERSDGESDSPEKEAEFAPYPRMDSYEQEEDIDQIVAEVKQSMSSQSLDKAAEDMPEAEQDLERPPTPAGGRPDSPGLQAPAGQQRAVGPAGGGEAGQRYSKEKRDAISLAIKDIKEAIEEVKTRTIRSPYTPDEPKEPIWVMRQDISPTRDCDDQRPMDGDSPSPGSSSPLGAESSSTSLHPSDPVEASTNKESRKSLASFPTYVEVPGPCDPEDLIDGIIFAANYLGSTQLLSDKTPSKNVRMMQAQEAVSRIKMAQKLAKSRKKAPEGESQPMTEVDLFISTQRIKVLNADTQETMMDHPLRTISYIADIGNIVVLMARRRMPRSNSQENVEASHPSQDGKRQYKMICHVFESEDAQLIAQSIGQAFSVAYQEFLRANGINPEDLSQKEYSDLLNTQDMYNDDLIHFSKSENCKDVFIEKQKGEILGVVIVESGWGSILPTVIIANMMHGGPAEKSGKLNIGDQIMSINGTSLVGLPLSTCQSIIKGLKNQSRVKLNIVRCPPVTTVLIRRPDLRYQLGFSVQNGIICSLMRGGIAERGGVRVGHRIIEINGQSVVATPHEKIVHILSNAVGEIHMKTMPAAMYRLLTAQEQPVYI

Beta-galactosidase = Beta-galactosidase (Escherichia coli, UniProt Q8VNN2); assay type: functional
[16] = Luminescence Cell-Based Dose Confirmation HTS to Identify Activators of 5'UTR Stem-Loop Driven Alpha-Synuclein mRNA Translation in H4 Neuroglioblastoma Cells. [Related pubchem assays: 1829 (Project Summary), 1814 (Primary HTS)]; assay type: functional
CHO = CHO cell viability loss, potency – luminescence, cytotoxicity control for TLR9-MyD88 binding inhibitor project, dose response (AID 588339); assay type: functional, cell-based, hamster; settings: Cricetulus griseus;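 further: CHO cells stably coexpressing TLR9 and MyD88 fusions from primary screen; compound exposure lasted 48 hours before viability readout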
[17] = target: Heat shock protein HSP 90-alpha (Homo sapiens, UniProt P07900); assay type: functional, organism-based
[18] = target: Glucose-6-phosphate 1-dehydrogenase (Homo sapiens, UniProt P11413); assay: inhibition of Homo sapiens G6PD, dose series – biochemical, fluorescence, selectivity assay for P. falciparum G6PD inhibitor project, dose response (AID 504792); assay type: functional
[19] = target: T4, Voltage-gated N-type calcium channel alpha-1B subunit/Amyloid beta A4 precursor protein-binding family A member 1; assay type: protein assay; remark: listed apart in the source
[20] = target: T2, Kappa-type opioid receptor; assay type: functional; remark: listed apart in the source
[21] = target: Luciferin 4-monooxygenase (Photinus pyralis, UniProt P08659); assay: inhibition of purified Photinus pyralis luciferase – biochemical, luminescence, dose response (AID 1891)
INS1 = assay: INS-1E survival protection against cytokine death – cell-based, luminescence, retest, dose response (AID 449756); assay type: functional; settings: Rattus norvegicus;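 further: cell death triggered by IL-1 beta plus TNF-alpha plus IFN-gamma mixture; protective hits raise ATP signal compared with cytokine alone wells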
DNA topoisomerase = DNA topoisomerase (Yersinia pestis, UniProt A0A2S9PM60); assay: Yersinia topoisomerase I cleavage product accumulation – biochemical, cherry-pick, dose response (AID 588525)
DNA topoisomerase, sequence (A0A2S9PM60 whole entry): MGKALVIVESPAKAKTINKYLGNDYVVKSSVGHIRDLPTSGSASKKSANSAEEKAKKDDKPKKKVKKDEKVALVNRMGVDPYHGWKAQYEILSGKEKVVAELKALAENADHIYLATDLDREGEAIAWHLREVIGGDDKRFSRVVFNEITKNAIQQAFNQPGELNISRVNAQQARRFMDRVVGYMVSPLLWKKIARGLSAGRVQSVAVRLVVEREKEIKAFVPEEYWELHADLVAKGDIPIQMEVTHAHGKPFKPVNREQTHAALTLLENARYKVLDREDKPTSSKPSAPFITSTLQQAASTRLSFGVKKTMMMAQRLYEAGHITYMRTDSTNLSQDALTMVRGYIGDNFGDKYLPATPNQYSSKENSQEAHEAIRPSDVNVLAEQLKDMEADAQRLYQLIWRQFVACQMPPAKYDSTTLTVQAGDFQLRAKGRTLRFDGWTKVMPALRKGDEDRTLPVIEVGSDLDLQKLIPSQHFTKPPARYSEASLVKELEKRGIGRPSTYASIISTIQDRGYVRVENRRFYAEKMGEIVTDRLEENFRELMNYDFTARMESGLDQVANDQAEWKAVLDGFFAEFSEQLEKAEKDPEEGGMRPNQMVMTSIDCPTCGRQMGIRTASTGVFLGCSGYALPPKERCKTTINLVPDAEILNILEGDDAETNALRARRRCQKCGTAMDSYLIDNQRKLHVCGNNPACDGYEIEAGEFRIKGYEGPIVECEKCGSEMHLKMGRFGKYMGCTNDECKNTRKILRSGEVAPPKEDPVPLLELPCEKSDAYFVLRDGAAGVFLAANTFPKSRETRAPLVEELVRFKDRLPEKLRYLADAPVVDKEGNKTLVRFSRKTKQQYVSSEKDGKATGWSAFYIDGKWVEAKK

[22] = target: Beta-2 adrenergic receptor (Homo sapiens, UniProt P07550); assay: ADRB2 activation measured by internalization – cell-based, FAP fluorogen, flow cytometry, cherry pick 1, dose response (AID 588763); assay type: functional
Beta-2 adrenergic receptor, sequence (P07550 whole entry): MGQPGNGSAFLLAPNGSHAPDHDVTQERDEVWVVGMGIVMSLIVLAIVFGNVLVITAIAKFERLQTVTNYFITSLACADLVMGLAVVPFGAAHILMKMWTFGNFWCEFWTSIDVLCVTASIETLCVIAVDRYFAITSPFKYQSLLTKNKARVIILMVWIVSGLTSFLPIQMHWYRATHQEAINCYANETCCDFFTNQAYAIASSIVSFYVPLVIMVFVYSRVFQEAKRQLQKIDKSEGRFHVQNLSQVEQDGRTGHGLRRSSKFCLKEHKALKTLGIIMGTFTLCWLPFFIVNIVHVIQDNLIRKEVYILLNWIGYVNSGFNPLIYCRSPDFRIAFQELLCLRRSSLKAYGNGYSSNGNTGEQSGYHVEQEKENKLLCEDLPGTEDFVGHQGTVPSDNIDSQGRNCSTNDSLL

NIH3T3 = assay: mammalian cell viability counter-check – Alamar Blue, fluconazole, dry powder, cytotoxicity control for antifungal drug resistance project, dose response (AID 488809); assay type: functional, cell-based; settings: Mus musculus
Candida albicans = assay: antifungal activity against resistant Candida strain – CaCi-8, fluconazole, Alamar Blue, dry powder, dose response (AID 488807); assay type: functional, organism-based
Hexokinase HKDC1 = Hexokinase HKDC1 (Homo sapiens, UniProt Q2TB90); assay: SAR analysis of small molecule inhibitors of hexokinase domain containing I (HKDC1). [Related pubchem assays (depositor defined):AID493160, AID493190]; assay type: functional
Hexokinase-1 = Hexokinase-1 (Homo sapiens, UniProt P19367); assay: SAR analysis of small molecule inhibitors of hexokinase domain containing I (HKDC1) in the hexokinase 1 selectivity assay. [Related pubchem assays (depositor defined):AID493160, AID493190]; assay type: functional
[23] = tested on: Streptococcus sp. 'group A'; assay: Streptococcus pyogenes SK(-)GAS viability under kanamycin – luminescence, BacTiterGlo, confirmation, counter-screen for streptokinase expression inhibitor project, dose response (AID 1900); assay type: functional, organism-based
A-375 [24] = assay: MITF: Counter assay: A375 proliferation Measured in Cell-Based System Using Plate Reader - 2084-03_Inhibitor_Dose_DryPowder_Activity. [Related pubchem assays (depositor defined):AID488944]; assay type: functional; settings: Homo sapiens
Streptococcus = assay: GAS UMAA2166 growth inhibition – luminescence, BacTiterGlo, counter-screen for streptokinase expression inhibitor project, dose response (AID 1915); assay type: functional, organism-based;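 further: potency for reduction of bacterial viability or growth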
A-375 [25] = assay: proliferation inhibition in MITF-low A375 cells – cell-based, cherry-pick samples, set 2, counter-screen for MITF modulator project, dose response (AID 540335); assay type: functional; settings: Homo sapiens
Streptokinase A = target: T5, Streptokinase A (Streptococcus pyogenes serotype M1, UniProt P10520); assay: viability-normalized secreted streptokinase activity reduction – plasminogen activation absorbance, OD405, dose response (AID 1914); assay type: functional, Streptococcus pyogenes M1 GAS;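 further: secreted streptokinase activity via plasminogen activation per viability signal from cell pellet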
T5 sequence (P10520 whole entry): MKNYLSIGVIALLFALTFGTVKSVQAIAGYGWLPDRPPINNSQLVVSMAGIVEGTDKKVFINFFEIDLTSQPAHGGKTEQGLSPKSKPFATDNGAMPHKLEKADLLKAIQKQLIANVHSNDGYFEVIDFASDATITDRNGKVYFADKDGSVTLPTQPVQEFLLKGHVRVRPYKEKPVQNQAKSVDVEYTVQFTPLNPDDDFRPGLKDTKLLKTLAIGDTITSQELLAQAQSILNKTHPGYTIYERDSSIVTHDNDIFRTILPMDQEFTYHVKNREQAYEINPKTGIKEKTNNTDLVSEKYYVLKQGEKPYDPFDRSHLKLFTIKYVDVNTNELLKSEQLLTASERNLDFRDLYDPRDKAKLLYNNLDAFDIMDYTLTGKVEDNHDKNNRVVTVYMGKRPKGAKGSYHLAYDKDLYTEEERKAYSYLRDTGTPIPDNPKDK

cells = assay type: functional, cell-based
Escherichia coli = assay: microbe, parasite or virus in culture
HEK293 = assay: EBV LMP1 TES2 canonical NF-kB signalling blockers – cell-based, HEK293, luciferase, cherry-pick, dose response (AID 588343); assay type: functional; settings: Homo sapiens
[26] = target: T6, Nuclear receptor subfamily 0 group B member 1 (Homo sapiens, UniProt P51843); assay type: functional, cell-based;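 further: HEK293T cells transfected with SF-1 and DAX-1 plus StAR promoter luciferase reporter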
T6 sequence (P51843 whole entry): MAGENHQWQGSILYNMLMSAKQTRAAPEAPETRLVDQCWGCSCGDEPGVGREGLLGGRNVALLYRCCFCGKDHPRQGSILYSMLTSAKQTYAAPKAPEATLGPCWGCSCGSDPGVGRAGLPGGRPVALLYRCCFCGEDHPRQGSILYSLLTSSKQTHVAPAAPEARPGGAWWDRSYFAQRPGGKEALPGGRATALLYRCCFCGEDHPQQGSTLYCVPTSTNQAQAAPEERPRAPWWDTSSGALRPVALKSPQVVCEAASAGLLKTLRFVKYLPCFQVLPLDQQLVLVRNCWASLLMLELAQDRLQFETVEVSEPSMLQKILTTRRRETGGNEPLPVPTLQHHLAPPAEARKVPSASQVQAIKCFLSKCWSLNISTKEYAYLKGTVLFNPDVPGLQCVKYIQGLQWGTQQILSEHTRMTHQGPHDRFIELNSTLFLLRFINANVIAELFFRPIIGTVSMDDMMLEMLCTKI

COc1ccc(OC)c2c1C(=O)C(Cl)=C(Cl)C2=O
IC50 (Beta-arrestin-1): 1.64 µM (active)
IC50 [1]: 48.3 µM (inactive)
IC50 [2]: 16.8 µM (not active)
IC50 [3]: 24.8 µM (active)
EC50 (BJ [4]): 3.94 µM (inconclusive)
IC50 [5]: 7.17 µM (active)
EC50 (H4): > 120 µM (not active)
IC50 [6]: 2.02 µM (active)
IC50 [7]: 11.8 µM (active)
IC50 (Beta Lactamase): 6.76 µM (active)
EC50 [8]: 5.7 µM (inconclusive)
EC50 (BJ [9]): 5.05 µM (inconclusive)
EC50 [10]: > 60 µM (not active)
EC50 [11]: 4.56 µM (active)
IC50 (Genome polyprotein): 5.23 µM (active)
EC50 (BJ [12]): 4.49 µM (active)
EC50 [13]: 11.7 µM (active)
CC50 (Vero): 14.1 µM (active)
EC50 (BJ [14]): 5.3 µM (active)
IC50 [15]: 0.331 µM (active)
EC50 (Beta-galactosidase): > 31.5 µM (inactive)
EC50 [16]: > 120 µM (not active)
IC50 (CHO): 0.629 µM (active)
AC50 [17]: 3.03 µM (active)
IC50 [18]: 27 µM (inactive)
IC50 [19]: 9.53 µM (active)
pIC50 [20]: < 4.49
EC50 [21]: > 112 µM (not active)
AC50 (INS1): 6.17 µM (active)

Cc1ccc2nc(Nc3nc(O)cc(CSc4nnc(C)s4)n3)nc(C)c2c1
AC50 (DNA topoisomerase): 6.04 µM (active)

Cc1ccc(CNC(=O)CCCCn2c(=O)[nH]c3ccsc3c2=O)cc1
EC50 [22]: 10.7 µM (inactive)

CCN(CC)C(=O)Cn1c2ccccc2c2nc3n(c(=O)c21)CCS3
AC50 (NIH3T3): 0.596 µM (active)
AC50 (Candida albicans): 6.14 µM (active)

COc1cc2c(cc1OC)-c1cc(NC(C)c3ccccc3)nc(=O)n1CC2 (stereo unspecified)
IC50 (Hexokinase HKDC1): > 80 µM (inactive)
IC50 (Hexokinase-1): > 80 µM (inactive)

Nc1nc2ccccc2n1/N=C/c1ccc(-c2ccccc2)o1
EC50 [23]: 5.7 µM (active)
EC50 [10]: 51.3 µM (active)
AC50 (A-375 [24]): > 35 µM (active)
EC50 (Streptococcus): > 150 µM (not active)
AC50 (A-375 [25]): > 35 µM (active)
EC50 [16]: 24.4 µM (active)
EC50 (Streptokinase A): > 150 µM (not active)

CN(C)c1cccc(C(=O)N/N=C/c2ccccc2F)c1
IC50 (cells): > 67.6 µM (inactive)
AC50 (Escherichia coli): 134 µM (active)
AC50 (HEK293): 3.75 µM (active)
IC50 [26]: > 67.6 µM (inactive)
